Results as given in patent publication US8629301B2, “Process for the purification of benzphetamine hydrochloride” (Mallinckrodt LLC, priority 2004, dated 2014).

Assay: partition between organic layer (toluene) and aqueous layer at adjusted pH
Conditions: for logD hydrocarbon water: toluene/water

Compound | partition coefficient (ratio of equilibrium concentration in the organic layer to that in the aqueous layer) (pH 4) | partition coefficient (ratio of equilibrium concentration in the organic layer to that in the aqueous layer) (pH 6) | partition coefficient (ratio of equilibrium concentration in the organic layer to that in the aqueous layer) (pH 8) | logD hydrocarbon water (pH 10) | partition coefficient (ratio of equilibrium concentration in the organic layer to that in the aqueous layer) (pH 10) | logD hydrocarbon water (pH 6)
CN[C@@H](C)Cc1ccccc1 [Methamphetamine, methamphetamine] | 0.015 | 0.000 | 0.124 | 0.527 | – | –
C[C@@H](Cc1ccccc1)N(C)Cc1ccccc1 [Benzphetamine, d-N-methyl-N-benzyl-beta-phenylisopropylamine] | 0.600 | – | ∞ | – | ∞ | 1.87
